These results are taken from PMC12676349, “Design of Glycosyltransferase Inhibitors: Targeting the Biosynthesis of Glycosaminoglycans by Phosphonate-Xyloside” (ACS Omega, 2025).

For test [1], the target named is T1, β-1,4-Galactosyltransferase 7 (β4GalT7) (Homo sapiens, UniProt Q9UBV7).
T1 construct: gene B4GALT7
T1 sequence (Q9UBV7 81-327): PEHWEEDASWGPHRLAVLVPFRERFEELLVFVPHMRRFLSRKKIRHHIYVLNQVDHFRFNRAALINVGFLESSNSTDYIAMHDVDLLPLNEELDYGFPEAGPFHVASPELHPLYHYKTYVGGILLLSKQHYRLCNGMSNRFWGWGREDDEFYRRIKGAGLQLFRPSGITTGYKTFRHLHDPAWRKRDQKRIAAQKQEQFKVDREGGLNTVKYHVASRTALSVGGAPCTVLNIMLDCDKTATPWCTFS
The test is described as follows: STD NMR. It is filed as binding.

Test [2] concerns the target T1, β-1,4-Galactosyltransferase 7 (β4GalT7). As to the kind of experiment: HPLC assay of GalXylNap formation from XylNap and UDP-Gal. Format: biochemical. From the text: HPLC assay of GalXylNap formation from XylNap and UDP-Gal on β-1,4-Galactosyltransferase 7 (β4GalT7) | display concentration-dependent inhibition of β4GalT7.

Structures are written as SMILES.

Take `CC(=O)N[C@H]1[C@@H](OP(=O)(O)OP(=O)(O)OC[C@H]2O[C@@H](n3ccc(=O)[nH]c3=O)[C@H](O)[C@@H]2O)O[C@H](CO)[C@H](O)[C@@H]1O` [UDP-GalNAc]: in test [1], the “STD NMR” value is “β4GalT7 tolerates an N-acetyl group at C2 of the sugar residue”.

Usually IC50 stands for the concentration that gives 50% inhibition. The low end stands for greater potency in that assay, the high end for weaker potency in that assay. The compound `O=P(O)(O)CP(=O)(O)OCCO[C@@H]1COC(O)[C@H](O)[C@H]1O` (mixture of isomers) [compound 4, 4-O-(2-(Methylene-diphosphoryl)-hydroxyethyl)-α/β-D-xylopyranose] showed an IC50 in test [2] of 188 µM.
